Biological target: T1, PPARδ (Homo sapiens, UniProt Q03181)
T1 construct: fused to amino acids 147-441 of PPARδ downstream of CMV promoter; expressed in transfected cells; host or cells: HEK293 cells, transiently transfected with pFACMV-PPARδ using Fugene
T1 sequence (Q03181 147-441): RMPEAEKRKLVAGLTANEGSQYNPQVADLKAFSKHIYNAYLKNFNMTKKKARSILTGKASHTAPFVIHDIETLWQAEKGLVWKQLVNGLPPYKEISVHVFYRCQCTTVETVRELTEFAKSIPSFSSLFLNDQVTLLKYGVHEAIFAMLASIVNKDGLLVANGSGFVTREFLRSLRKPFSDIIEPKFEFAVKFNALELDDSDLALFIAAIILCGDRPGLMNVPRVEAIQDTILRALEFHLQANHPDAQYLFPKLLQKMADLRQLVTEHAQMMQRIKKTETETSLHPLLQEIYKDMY
Assay: Transactivation assay (PPARδ GAL4 assay) in transiently transfected HEK293 cells
Format: cell-based
Details: luciferase reporter
Description: Compounds were screened for their functional potency in transiently transfected HEK293 cells for their ability to activate PPAR subtypes. Cells were cultured in DMEM (Invitrogen) supplemented with 10% foetal calf serum, glutamine, penicillin and streptomycin and plated at 10 000 cells/well of a 96-well solid white plate and incubated at 37° C./5% CO2 for 24 hours. Media was removed and the cells washed with PBS. Cells were then transiently transfected using Fugene (Roche) with 50 ng pFACMV-PPARδ (plasmid encoding amino acids 1-147 of the GAL4 DNA binding domain, fused to amino acids 147-441 of PPARδ downstream of CMV promoter) and 250 ng pFR-Luc (reporter plasmid containing 5×GAL4 response elements upstream of a luciferase gene), using a ratio of 3:1 Fugene:DNA. 100 μl of this transfection mixture in DMEM (without foetal calf serum) was added to each well, and the incubation continued for a further 24 hours. The cells are then again washed with PBS prior to the addition of 100 μl reduced serum medium (OptiMEM; Invitrogen). Compounds were added (10 μl in 2% DMSO in OptiMEM) to achieve final concentrations between 0-30 μM. The cells were then returned to the incubator for a further 24 hours. 100 μl of luciferase reagent (Bright Glo, Promega) was added directly to each well, and the luminescence determined using a suitable luminometer.
To measure the selectivity of compounds, their ability to transactivate GAL4 fusions of PPARα LBD and PPARγ LBD was determined. The activity of compounds was expressed as a percentage relative to control compounds: PPARγ rosiglitazone (BRL 49653), PPARδ GW501516 (11) or PPARα KCL1999000269 (12). EC50 values were calculated by fitting of the data to a sigmoidal dose response curve.

Compound | EC50 (Table 2) [nM] | EC50 (Table 1) [nM]
CCc1cc(C(=O)c2ccc(OC(F)(F)F)cc2)c(NC(=O)CN2CC(C)CC2C(=O)O)s1 (mixture of isomers) [Example 180, 1-{[5-Ethyl-3-(4-trifluoromethoxy-benzoyl)-thiophen-2-ylcarbamoyl]-methyl}-4-methyl-pyrrolidine-2-carboxylic acid] | 100 to 1000 | 
CCc1cc(C(=O)c2ccc(OC(F)(F)F)cc2)c(NC(=O)CN2[C@H](C)CC[C@@H]2C(=O)O)s1 (relative stereo) [Example 178, (2R*,5R*)-1-{[5-Ethyl-3-(4-trifluoromethoxy-benzoyl)-thiophen-2-ylcarbamoyl]-methyl}-5-methyl-pyrrolidine-2-carboxylic acid] | 1000 to 30000 | 
CCc1cc(C(=O)c2ccc(OC(F)(F)F)cc2)c(NC(=O)CN2[C@@H](C(=O)O)CC[C@@H]2C)s1 (relative stereo) [Example 179, (2R*,5S*)-1-{[5-Ethyl-3-(4-trifluoromethoxy-benzoyl)-thiophen-2-ylcarbamoyl]-methyl}-5-methyl-pyrrolidine-2-carboxylic acid] | < 100 | 
CCc1cc(C(=O)c2ccc(OC(F)(F)F)cc2)c(NC(=O)CN[C@@H](C(=O)O)C(C)C)s1 (single isomer, unassigned) [Example 75, 2-({[5-Ethyl-3-(4-trifluoromethoxy-benzoyl)-thiophen-2-ylcarbamoyl]-methyl}-amino)-3-methyl-butyric acid] |  | < 100
CCc1cc(C(=O)c2ccc(OC(F)(F)F)cc2)c(NC(=O)CSCC(=O)O)s1 [Example 1, {[5-Ethyl-3-(4-trifluoromethoxy-benzoyl)-thiophen-2-ylcarbamoyl]-methylsulfanyl}-acetic acid] |  | < 100
CCc1cc(C(=O)c2ccc(OC(F)(F)F)cc2)c(NC(=O)CSC(C)(C)C(=O)O)s1 [Example 2, 2-{[5-Ethyl-3-(4-trifluoromethoxy-benzoyl)-thiophen-2-ylcarbamoyl]-methylsulfanyl}-2-methyl-propionic acid] |  | < 100
CCc1cc(C(=O)c2ccc(OC(F)(F)F)cc2)c(NC(=O)CC(C)(C)CC(=O)O)s1 [Example 3, 4-[5-Ethyl-3-(4-trifluoromethoxy-benzoyl)-thiophen-2-ylcarbamoyl]-3,3-dimethyl-butylic acid] |  | 100 to 1000
CCc1cc(C(=O)c2ccc(OC(F)(F)F)cc2)c(NC(=O)CC2(CC(=O)O)CCCC2)s1 [Example 4, (1-{[5-Ethyl-3-(4-trifluoromethoxy-benzoyl)-thiophen-2-ylcarbamoyl]-methyl}-cyclopentyl)-acetic acid] |  | 100 to 1000
CCc1cc(C(=O)c2ccc(OC)cc2)c(NC(=O)CSC(C)(C)C(=O)O)s1 [Example 5, 2-{[5-Ethyl-3-(4-methoxy-benzoyl)-thiophen-2-ylcarbamoyl]-methylsulfanyl}-2-methyl-propionic acid] |  | 100 to 1000
CCc1cc(C(=O)c2ccc(OC)cc2)c(NC(=O)CC2(CC(=O)O)CCCC2)s1 [Example 6, (1-{[5-Ethyl-3-(4-methoxy-benzoyl)-thiophen-2-ylcarbamoyl]-methyl}-cyclopentyl)-acetic acid] |  | 1000 to 30000
CCc1cc(C(=O)c2ccc(OC)cc2)c(NC(=O)CCCC(=O)O)s1 [Example 7, 4-[5-Ethyl-3-(4-methoxy-benzoyl)-thiophen-2-ylcarbamoyl]-butyric acid] |  | 1000 to 30000
CCc1cc(C(=O)c2ccc(C)cc2)c(NC(=O)CSCC(=O)O)s1 [Example 8, {[5-Ethyl-3-(4-methyl-benzoyl)-thiophen-2-ylcarbamoyl]-methylsulfanyl}-acetic acid] |  | 100 to 1000
CCc1ccc(C(=O)c2cc(CC)sc2NC(=O)CSCC(=O)O)cc1 [Example 9, {[5-Ethyl-3-(4-ethyl-benzoyl)-thiophen-2-ylcarbamoyl]-methylsulfanyl}-acetic acid] |  | 100 to 1000
CCc1ccc(C(=O)c2cc(CC)sc2NC(=O)CSC(C)(C)C(=O)O)cc1 [Example 10, 2-{[5-Ethyl-3-(4-ethyl-benzoyl)-thiophen-2-ylcarbamoyl]-methylsulfanyl}-2-methyl-propionic acid] |  | 100 to 1000
CCc1ccc(C(=O)c2cc(CC)sc2NC(=O)CC2(CC(=O)O)CCCC2)cc1 [Example 11, (1-{[5-Ethyl-3-(4-ethyl-benzoyl)-thiophen-2-ylcarbamoyl]-methyl}-cyclopentyl)-acetic acid] |  | 1000 to 30000
CCc1cc(C(=O)c2ccc(Oc3ccccc3)cc2)c(NC(=O)CSCC(=O)O)s1 [Example 12, {[5-Ethyl-3-(4-phenoxy-benzoyl)-thiophen-2-ylcarbamoyl]-methylsulfanyl}-acetic acid] |  | 100 to 1000
CCc1cc(C(=O)c2ccc(Oc3ccccc3)cc2)c(NC(=O)CC(C)(C)CC(=O)O)s1 [Example 13, 4-[5-Ethyl-3-(4-phenoxy-benzoyl)-thiophen-2-ylcarbamoyl]-3,3-dimethyl-butyric acid] |  | 1000 to 30000
CCc1cc(C(=O)c2ccccc2)c(NC(=O)CSCC(=O)O)s1 [Example 14, [(3-Benzoyl-5-ethyl-thiophen-2-ylcarbamoyl)-methylsulfanyl]-acetic acid] |  | 1000 to 30000
CCc1cc(C(=O)c2ccccc2)c(NC(=O)CSC(C)(C)C(=O)O)s1 [Example 15, 2-[(3-Benzoyl-5-ethyl-thiophen-2-ylcarbamoyl)-methylsulfanyl]-2-methyl-propionic acid] |  | 1000 to 30000
CCc1cc(C(=O)c2ccccc2)c(NC(=O)CC(C)(C)CC(=O)O)s1 [Example 16, 4-(3-Benzoyl-5-ethyl-thiophen-2-ylcarbamoyl)-3,3-dimethyl-butyric acid] |  | 1000 to 30000
CCc1cc(C(=O)c2ccccc2)c(NC(=O)CC2(CC(=O)O)CCCC2)s1 [Example 17, {1-[(3-Benzoyl-5-ethyl-thiophen-2-ylcarbamoyl)-methyl]-cyclopentyl}-acetic acid] |  | 1000 to 30000
CCc1cc(C(=O)c2ccc(F)cc2)c(NC(=O)CSCC(=O)O)s1 [Example 18, {[5-Ethyl-3-(4-fluoro-benzoyl)-thiophen-2-ylcarbamoyl]-methylsulfanyl}-acetic acid] |  | 1000 to 30000
CCc1cc(C(=O)c2ccc(F)cc2)c(NC(=O)CSC(C)(C)C(=O)O)s1 [Example 19, 2-{[5-Ethyl-3-(4-fluoro-benzoyl)-thiophen-2-ylcarbamoyl]-methylsulfanyl}-2-methyl-propionic acid] |  | 100 to 1000
CCc1cc(C(=O)c2ccc(F)cc2)c(NC(=O)CC(C)(C)CC(=O)O)s1 [Example 20, 4-[5-Ethyl-3-(4-fluoro-benzoyl)-thiophen-2-ylcarbamoyl]-3,3-dimethyl-butyric acid] |  | 1000 to 30000
CCc1cc(C(=O)c2ccc(F)cc2)c(NC(=O)CC2(CC(=O)O)CCCC2)s1 [Example 21, (1-{[5-Ethyl-3-(4-fluoro-benzoyl)-thiophen-2-ylcarbamoyl]-methyl}-cyclopentyl)-acetic acid] |  | 1000 to 30000
CCc1cc(C(=O)c2ccc(Br)cc2)c(NC(=O)CSCC(=O)O)s1 [Example 22, {[3-(4-Bromo-benzoyl)-5-ethyl-thiophen-2-ylcarbamoyl]-methylsulfanyl}-acetic acid] |  | < 100
CCc1cc(C(=O)c2ccc(Cl)cc2)c(NC(=O)CSCC(=O)O)s1 [Example 23, {[3-(4-Chloro-benzoyl)-5-ethyl-thiophen-2-ylcarbamoyl]-methylsulfanyl}-acetic acid] |  | 100 to 1000

Reference: patent US20100063065A1 (Inpharmatica Limited, priority 2005, published 2010)
